Drawing on patent US11242351B2, “Tricyclic inhibitors of the BCL6 BTB domain protein-protein interaction and uses thereof” (priority 2017, dated 2022), this text covers Kd, EC50 and IC50 for 14 compounds.

The structures appear in SMILES notation. Where two headings read alike, the source gives them in different places.

Experiment [1] deals with BCL6 BTB domain (biotin-thrombin-BCL6 amino acids 1-129) (Homo sapiens (Human), UniProt P41182). Description: Surface Plasmon Resonance (SPR) assay. Type of experiment: binding. The following applies: Biacore T200, single cycle kinetic analysis. The protocol:
Surface Plasmon Resonance (SPR) Assay
SPR studies were performed using a Biacore™ T200 instrument (GE Health Sciences Inc.). […] The Biacore flow rate was set at 100 μl/min. […] Curve fitting and KD calculations were performed with the Biacore T200 Evaluation software (GE Health Sciences Inc).
A general note: SPR reads the build-up and loss of mass on a sensor chip optically.

The test system of a further experiment is Karpas422 cells. Description: Tumor cell growth inhibition assay. The following applies: Homo sapiens, KARPAS-422, 144 h, read-out: GI Karpas EC50. Type of experiment: cell-based. Here is the method:
Tumor Cell Growth Inhibition Assay:
Karpas422 cells were seeded into a 96-well plate at 2,000 cells/well in 150 μl medium (Alpha-MEM containing 10% FBS, […] Normocin, and […] Gentamycin, Invitrogen). A HP D300 digital dispenser was used to dose cells with DMSO or test compounds across a 10-point range of concentrations (high dose of 5 μM), and cultures were grown in a humidified 5% CO2 incubator at 37° C. After six days, plates were removed from incubator and equilibrated to room temperature. An equal volume of ATPlite assay reagent was added to each well, and samples were processed according to the manufacturer's instructions (Perkin Elmer). The luminescent signal was measured using an Envision plate reader equipped with a US-Luminescence detector.

Experiment [2] relates to BCL6 reporter construct in SuDHL4-3×BCL6-TK-Luc cells. Put plainly: Cell-based luciferase assay (BCL6 reporter). The following applies: 48 h, read-out: Luc IC50. Here is the method:
Cell-Based Luciferase Assay:
A BCL6 reporter construct containing three copies of the consensus BCL6 binding site, the TK promoter, and the firefly luciferase gene was stably expressed in SuDHL4 cells after lentivirus infection and selection with Blasticidin. SuDHL4-3×BCL6-TK-Luc cells were seeded into a Viewplate 384-well assay dish at 15,000 cells/well in […] (Alpha-MEM high glucose containing 10% FBS, 25 mM HEPES, […] GlutaMAX, 100 µg/mL Normocin, and […] Gentamycin, Invitrogen). A HP D300 digital dispenser was used to dose cells with DMSO or test compounds across a 10-point range of concentrations (high dose of 10 μM), and cultures were grown in a humidified 5% CO2 incubator at 37° C. After two days, plates were removed from the incubator and equilibrated to room temperature. An equal volume of neolite reporter gene assay reagent was added to each well, and samples were processed according to the manufacturer's instructions (Perkin Elmer). The luminescent signal was measured using an Envision plate reader equipped with a US-Luminescence detector.

Setting [3] is: Karpas422 cells, six days, ATPlite.
Setting [4] is: SuDHL4-3×BCL6-TK-Luc cells, two days.

Regarding `C[C@H]1CN(CC(F)F)CCN1c1cc(NC(=O)Cn2cc(-c3cc(C(N)=O)c(O)c(F)c3F)c3c(=O)n4c(nc32)CCC4)c(Cl)c(F)n1` [I-48, (S)-5-(1-(2-((3-chloro-6-(4-(2,2-difluoroethyl)-2-methylpiperazin-1-yl)-2-fluoropyridin-4-yl)amino)-2-oxoethyl)-4-oxo-4,6,7,8-tetrahydro-1H-dipyrrolo[1,2-a:2′,3′-d]pyrimidin-3-yl)-3,4-difluoro-2-hydroxy-benzamide], the Kd (in general, a measure of binding affinity in units of concentration) in experiment [1] amounted to 13.7 nM. In addition, the 50% effective concentration (EC50) (usually the concentration that produces a half-maximal response) with Karpas422 cells (setting [3]) amounted to 64.6 nM. Also, the half-maximal inhibitory concentration (IC50) (commonly the concentration that gives 50% inhibition) in experiment [2] (setting [4]) was found to be 96.4 nM.

`CO[C@@H](C)CN1CCN(c2cc(NC(=O)Cn3cc(-c4cc(C(N)=O)c(O)c(F)c4F)c4c(=O)n5c(nc43)CCC5)c(Cl)c(F)n2)[C@@H](C)C1` [I-37, 5-(1-(2-((3-chloro-2-fluoro-6-((S)-4-((S)-2-methoxypropyl)-2-methylpiperazin-1-yl)pyridin-4-yl)amino)-2-oxoethyl)-4-oxo-4,6,7,8-tetrahydro-1H-dipyrrolo[1,2-a:2′,3′-d]pyrimidin-3-yl)-3,4-difluoro-2-hydroxy-benzamide] displayed a Kd in experiment [1] of 14.4 nM. In addition, the EC50 in the experiment on Karpas422 cells (setting [3]) came to 113 nM. In addition, the IC50 in experiment [2] (setting [4]) turned out to be 109 nM.

In experiment [1], `NC(=O)c1cc(-c2cn(CC(=O)Nc3cc(N4CCCC4)nc(F)c3Cl)c3nc4n(c(=O)c23)CCC4)c(F)c(F)c1O` [I-47, 5-(1-(2-((3-chloro-2-fluoro-6-(pyrrolidin-1-yl)pyridin-4-yl)amino)-2-oxoethyl)-4-oxo-4,6,7,8-tetrahydro-1H-dipyrrolo[1,2-a:2′,3′-d]pyrimidin-3-yl)-3,4-difluoro-2-hydroxy-benzamide] yielded a Kd of 23.9 nM. Also, in the experiment with Karpas422 cells (setting [3]), the EC50 was found to be 212 nM. Further, in experiment [2] (setting [4]), the IC50 amounted to 166 nM.

Take `C[C@H]1CN(C)C[C@H](C)N1c1cc(NC(=O)Cn2cc(-c3cc(F)c(O)c(C(N)=O)c3)c3c(=O)n4c(nc32)CCC4)c(Cl)c(F)n1` [I-83, 5-(1-(2-((3-chloro-2-fluoro-6-((2S,6S)-2,4,6-trimethylpiperazin-1-yl)pyridin-4-yl)amino)-2-oxoethyl)-4-oxo-4,6,7,8-tetrahydro-1H-dipyrrolo[1,2-a:2′,3′-d]pyrimidin-3-yl)-3-fluoro-2-hydroxy-benzamide]: binding in experiment [1] was characterised by a dissociation constant (Kd) of 11.2 nM. For the same compound, the EC50 in the experiment on Karpas422 cells (setting [3]) worked out at 109 nM. Further, the half-inhibitory concentration (IC50) in experiment [2] (setting [4]) was 465 nM.

`CC1Cc2nc3c(c(-c4cc(C(N)=O)c(O)c(F)c4F)cn3CC(=O)Nc3cc(N4CCN(C)C[C@@H]4C)nc(F)c3Cl)c(=O)n2C1` (stereo partly drawn) [I-63, 5-(1-(2-((3-chloro-6-((S)-2,4-dimethyl-piperazin-1-yl)-2-fluoropyridin-4-yl)amino)-2-oxoethyl)-7-methyl-4-oxo-4,6,7,8-tetrahydro-1H-dipyrrolo[1,2-a:2′,3′-d]pyrimidin-3-yl)-3,4-difluoro-2-hydroxy-benzamide]: the Kd in experiment [1] was determined as 10.2 nM. Further, in the experiment with Karpas422 cells (setting [3]), the EC50 was determined as 120 nM. The IC50 in experiment [2] (setting [4]) is 110 nM.

As to `C[C@H]1CN(C2COC2)CCN1c1cc(NC(=O)Cn2cc(-c3cc(C(N)=O)c(O)c(Cl)c3F)c3c(=O)n4c(nc32)CCC4)c(Cl)cn1` [I-14, (S)-3-chloro-5-(1-(2-((5-chloro-2-(2-methyl-4-(oxetan-3-yl)piperazin-1-yl)pyridin-4-yl)amino)-2-oxoethyl)-4-oxo-4,6,7,8-tetrahydro-1H-dipyrrolo[1,2-a:2′,3′-d]pyrimidin-3-yl)-4-fluoro-2-hydroxy-benzamide], binding in experiment [1] was put at a Kd of 58.1 nM. In addition, the EC50 with Karpas422 cells (setting [3]) was determined as 698 nM. The IC50 in experiment [2] (setting [4]) stood at 774 nM.

Regarding `CN(C)c1cc(NC(=O)Cn2cc(-c3cc(C(N)=O)c(O)c(Cl)c3F)c3c(=O)n4c(nc32)CCC4)c(Cl)c(F)n1` [I-27, 3-chloro-5-(1-(2-((3-chloro-6-(dimethyl-amino)-2-fluoro-pyridin-4-yl)amino)-2-oxoethyl)-4-oxo-4,6,7,8-tetrahydro-1H-dipyrrolo[1,2-a:2′,3′-d]pyrimidin-3-yl)-4-fluoro-2-hydroxy-benzamide], the Kd in experiment [1] came to 190 nM. Also, the 50% effective concentration (EC50) with Karpas422 cells came to 1630 nM. In experiment [2], the IC50 was 1140 nM.

In experiment [1], `C[C@H]1COCCN1c1cc(NC(=O)Cn2cc(-c3cc(Cl)c(O)c(C(N)=O)c3)c3c(=O)n4c(nc32)CC(C)(C)C4)c(Cl)c(F)n1` [I-59, (S)-3-chloro-5-(1-(2-((3-chloro-2-fluoro-6-(3-methylmorpho-lino)pyridin-4-yl)amino)-2-oxoethyl)-7,7-dimethyl-4-oxo-4,6,7,8-tetrahydro-1H-dipyrrolo[1,2-a:2′,3′-d]pyrimidin-3-yl)-2-hydroxybenzamide] had a Kd of 23.4 nM. For the same compound, in the experiment on Karpas422 cells (setting [3]), the EC50 was 48.8 nM. Besides, the IC50 in experiment [2] (setting [4]) came out at 190 nM.

In experiment [1], `C[C@H]1CN(CC2CC2)CCN1c1cc(NC(=O)Cn2cc(-c3cc(C(N)=O)c(O)c(F)c3F)c3c(=O)n4c(nc32)CCC4)c(Cl)c(F)n1` [I-24, (S)-5-(1-(2-((3-chloro-6-(4-(cyclopropylmethyl)-2-methylpiperazin-1-yl)-2-fluoropyridin-4-yl)amino)-2-oxoethyl)-4-oxo-4,6,7,8-tetrahydro-1H-dipyrrolo[1,2-a:2′,3′-d]pyrimidin-3-yl)-3,4-difluoro-2-hydroxy-benzamide] came in with a Kd of 12.3 nM. In addition, the EC50 in the experiment with Karpas422 cells (setting [3]) came out at 134 nM. Also, the IC50 in experiment [2] (setting [4]) was determined as 152 nM.

Turning to `C[C@H]1CN(C)CCN1c1cc(NC(=O)Cn2cc(-c3cc(C(N)=O)c(O)c(Cl)c3F)c3c(=O)n4c(nc32)CCC4)c(Cl)cn1` [I-12, (S)-3-chloro-5-(1-(2-((5-chloro-2-(2,4-dimethyl-piperazin-1-yl)pyridin-4-yl)amino)-2-oxoethyl)-4-oxo-4,6,7,8-tetrahydro-1H-dipyrrolo[1,2-a:2′,3′-d]pyrimidin-3-yl)-4-fluoro-2-hydroxy-benzamide], in experiment [1], the equilibrium dissociation constant (Kd) was determined as 111 nM. Besides, the EC50 in the experiment on Karpas422 cells was 1470 nM. Besides, the IC50 in experiment [2] is 994 nM.

With `C[C@H]1CN(C)CCN1c1cc(NC(=O)Cn2cc(-c3cc(C(N)=O)c(O)c(Cl)c3F)c3c(=O)n4c(nc32)CCC4)c(Cl)c(F)n1` [I-10, (S)-3-chloro-5-(1-(2-((3-chloro-6-(2,4-dimethylpiperazin-1-yl)-2-fluoropyridin-4-yl)amino)-2-oxoethyl)-4-oxo-4,6,7,8-tetrahydro-1H-dipyrrolo[1,2-a:2′,3′-d]pyrimidin-3-yl)-4-fluoro-2-hydroxy-benzamide], the Kd in experiment [1] amounted to 49.7 nM. Further, the EC50 in the experiment with Karpas422 cells worked out at 416 nM. Besides, the IC50 in experiment [2] is 448 nM.

In turn, `CCN1CCN(c2cc(NC(=O)Cn3cc(-c4cc(C(N)=O)c(O)c5c4OCO5)c4c(=O)n5c(nc43)CCC5)c(Cl)c(F)n2)[C@@H](C)C1` [I-86, (S)-7-(1-(2-((3-chloro-6-(4-ethyl-2-methyl-piperazin-1-yl)-2-fluoropyridin-4-yl)amino)-2-oxoethyl)-4-oxo-4,6,7,8-tetrahydro-1H-dipyrrolo[1,2-a:2′,3′-d]pyrimidin-3-yl)-4-hydroxybenzo[d][1,3] dioxole-5-carboxamide] showed a Kd in experiment [1] of 0.81 nM. Besides, the EC50 with Karpas422 cells amounted to 6.88 nM. Moreover, in experiment [2], the IC50 was found to be 7.85 nM.

As for `C[C@H]1CN(CCC(F)(F)F)CCN1c1cc(NC(=O)Cn2cc(-c3cc(C(N)=O)c(O)c(F)c3F)c3c(=O)n4c(nc32)CCC4)c(Cl)c(F)n1` [I-40, (S)-5-(1-(2-((3-chloro-2-fluoro-6-(2-methyl-4-(3,3,3-trifluoropropyl)piperazin-1-yl)pyridin-4-yl)amino)-2-oxoethyl)-4-oxo-4,6,7,8-tetrahydro-1H-dipyrrolo[1,2-a:2′,3′-d]pyrimidin-3-yl)-3,4-difluoro-2-hydroxy-benzamide], the Kd in experiment [1] stood at 134 nM. The concentration giving a half-maximal response (EC50) with Karpas422 cells (setting [3]) turned out to be 273 nM. In addition, the IC50 in experiment [2] (setting [4]) amounted to 187 nM.

As to `CC1Cc2nc3c(c(-c4cc(C(N)=O)c(O)c5c4OCO5)cn3CC(=O)Nc3cc(N4CCN(C)C[C@@H]4C)nc(F)c3Cl)c(=O)n2C1` (stereo partly drawn) [I-87, 7-(1-(2-((3-chloro-6-((S)-2,4-dimethyl-piperazin-1-yl)-2-fluoropyridin-4-yl)amino)-2-oxoethyl)-7-methyl-4-oxo-4,6,7,8-tetrahydro-1H-dipyrrolo[1,2-a:2′,3′-d]pyrimidin-3-yl)-4-hydroxybenzo[d][1,3] dioxole-5-carboxamide], binding in experiment [1] was put at a Kd of 0.77 nM. For the same compound, the EC50 with Karpas422 cells (setting [3]) is 9.04 nM. In experiment [2] (setting [4]), the IC50 turned out to be 10.6 nM.
